From ChEMBL document CHEMBL1201862, “PubChem BioAssay data set” (2004)
Activity calls are given as the source filed them.

Key:
Cytochrome P450 2C19 = Cytochrome P450 2C19 (Homo sapiens, UniProt P33261); assay: Cytochrome panel assay with activity outcomes. Panel member name: p450-cyp2c19 Compounds with AC50 equal or less than 10 uM are considered active; type: functional
Protein RecA = target: T1, Protein RecA (Mycobacterium tuberculosis, UniProt P9WHJ3); assay: Fluorescence Cell-Free Homogeneous Dose Retest to Identify Inhibitors of RecA-Intein Splicing Activity. [Related pubchem assays (depositor defined):AID2097, AID2223, AID489010, AID492950]; type: functional
T1 sequence (P9WHJ3 whole entry): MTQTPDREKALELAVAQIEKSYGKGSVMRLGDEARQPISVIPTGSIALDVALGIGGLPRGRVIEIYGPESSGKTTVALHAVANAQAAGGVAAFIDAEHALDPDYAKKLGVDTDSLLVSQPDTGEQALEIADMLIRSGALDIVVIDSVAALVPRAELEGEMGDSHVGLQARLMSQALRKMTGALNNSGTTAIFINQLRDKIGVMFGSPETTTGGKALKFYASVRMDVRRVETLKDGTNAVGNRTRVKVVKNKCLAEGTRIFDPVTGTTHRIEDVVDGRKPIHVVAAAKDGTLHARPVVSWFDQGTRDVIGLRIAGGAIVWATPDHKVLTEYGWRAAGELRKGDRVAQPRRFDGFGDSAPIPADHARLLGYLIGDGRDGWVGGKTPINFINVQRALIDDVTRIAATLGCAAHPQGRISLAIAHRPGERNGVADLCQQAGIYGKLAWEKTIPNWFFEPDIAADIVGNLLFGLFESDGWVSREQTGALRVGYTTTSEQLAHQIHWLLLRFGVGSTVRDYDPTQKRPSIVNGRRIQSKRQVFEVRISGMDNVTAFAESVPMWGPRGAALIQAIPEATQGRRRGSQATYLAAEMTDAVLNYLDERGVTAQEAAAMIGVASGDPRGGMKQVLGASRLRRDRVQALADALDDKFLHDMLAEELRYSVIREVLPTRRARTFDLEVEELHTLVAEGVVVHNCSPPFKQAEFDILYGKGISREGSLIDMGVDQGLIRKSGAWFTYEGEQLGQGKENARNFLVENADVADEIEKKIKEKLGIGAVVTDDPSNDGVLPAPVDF

[1] = target: T2, Replicative DNA helicase DnaB (Mycobacterium tuberculosis, UniProt P9WMR3); assay: DnaB intein splicing inhibitors, dose response, biochemical, cell-free fluorescence (AID 449749); type: functional
T2 sequence (P9WMR3 whole entry): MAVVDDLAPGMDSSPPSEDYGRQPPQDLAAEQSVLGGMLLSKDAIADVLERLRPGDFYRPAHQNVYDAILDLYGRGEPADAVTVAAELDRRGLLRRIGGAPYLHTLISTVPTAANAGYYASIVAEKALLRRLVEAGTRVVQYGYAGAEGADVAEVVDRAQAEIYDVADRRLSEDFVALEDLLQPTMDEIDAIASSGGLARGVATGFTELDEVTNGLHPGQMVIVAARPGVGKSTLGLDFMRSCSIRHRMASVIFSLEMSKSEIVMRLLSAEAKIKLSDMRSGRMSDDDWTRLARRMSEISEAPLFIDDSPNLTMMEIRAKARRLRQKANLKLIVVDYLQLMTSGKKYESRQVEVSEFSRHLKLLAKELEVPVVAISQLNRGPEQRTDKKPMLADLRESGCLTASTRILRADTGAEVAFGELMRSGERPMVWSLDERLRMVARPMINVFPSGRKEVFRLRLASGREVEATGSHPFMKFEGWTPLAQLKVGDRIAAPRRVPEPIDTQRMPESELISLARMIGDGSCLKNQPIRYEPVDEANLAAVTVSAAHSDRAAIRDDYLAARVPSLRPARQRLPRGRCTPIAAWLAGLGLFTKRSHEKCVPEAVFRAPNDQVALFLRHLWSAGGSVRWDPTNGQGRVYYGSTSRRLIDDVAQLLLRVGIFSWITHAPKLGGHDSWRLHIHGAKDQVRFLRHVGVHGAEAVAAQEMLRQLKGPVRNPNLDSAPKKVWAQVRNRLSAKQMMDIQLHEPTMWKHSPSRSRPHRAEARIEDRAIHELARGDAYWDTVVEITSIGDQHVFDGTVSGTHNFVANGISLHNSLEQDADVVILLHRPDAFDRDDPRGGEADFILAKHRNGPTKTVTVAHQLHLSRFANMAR

Streptokinase A = target: T3, Streptokinase A (Streptococcus pyogenes serotype M1, UniProt P10520); assay: viability-normalized secreted streptokinase activity reduction – plasminogen activation absorbance, OD405, dose response (AID 1914); type: functional, Streptococcus pyogenes M1 GAS;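 also: secreted streptokinase activity via plasminogen activation per viability signal from cell pellet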
T3 sequence (P10520 whole entry): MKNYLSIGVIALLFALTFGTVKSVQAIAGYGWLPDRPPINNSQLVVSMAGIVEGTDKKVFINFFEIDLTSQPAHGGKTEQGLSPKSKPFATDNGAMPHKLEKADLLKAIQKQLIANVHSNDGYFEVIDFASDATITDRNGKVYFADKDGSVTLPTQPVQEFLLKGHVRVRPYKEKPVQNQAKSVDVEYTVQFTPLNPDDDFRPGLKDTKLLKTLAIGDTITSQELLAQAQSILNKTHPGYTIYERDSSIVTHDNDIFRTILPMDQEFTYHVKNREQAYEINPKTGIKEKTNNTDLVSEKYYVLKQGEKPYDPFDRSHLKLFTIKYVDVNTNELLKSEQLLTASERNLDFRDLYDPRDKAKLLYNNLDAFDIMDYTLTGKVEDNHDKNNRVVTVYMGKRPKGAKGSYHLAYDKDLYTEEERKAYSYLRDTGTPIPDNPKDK

Streptococcus = assay: GAS UMAA2166 growth inhibition – luminescence, BacTiterGlo, counter-screen for streptokinase expression inhibitor project, dose response (AID 1915); type: functional, organism-based;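 also: potency for reduction of bacterial viability or growth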
[2] = test system: Streptococcus sp. 'group A'; assay: Streptococcus pyogenes SK(-)GAS viability under kanamycin – luminescence, BacTiterGlo, confirmation, counter-screen for streptokinase expression inhibitor project, dose response (AID 1900); type: functional, organism-based
[3] = NIH3T3 cell viability loss – ATP luminescence, mouse fibroblasts, counter-screen, dose response (AID 2010); type: functional, cell-based;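 also: cells exposed to compound for about 90 hours before reading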
[4] = Trypanosoma cruzi growth suppression in host cells – NIH3T3 host cells, beta-gal luminescence, confirmation (AID 2044); type: functional, cell-based;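 also: intracellular parasites grown in NIH/3T3 mouse fibroblasts as host cells; luminescent beta-galactosidase reporter signal from transgenic T. cruzi replicating inside host cells; inhibitors lower the luminescence signal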
Cytochrome P450 3A4 = Cytochrome P450 3A4 (Homo sapiens, UniProt P08684);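 also: CYP3A4 tested as one member of a cytochrome P450 panel screen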
Chain of Cytochrome P450 3A4 (P08684 whole entry): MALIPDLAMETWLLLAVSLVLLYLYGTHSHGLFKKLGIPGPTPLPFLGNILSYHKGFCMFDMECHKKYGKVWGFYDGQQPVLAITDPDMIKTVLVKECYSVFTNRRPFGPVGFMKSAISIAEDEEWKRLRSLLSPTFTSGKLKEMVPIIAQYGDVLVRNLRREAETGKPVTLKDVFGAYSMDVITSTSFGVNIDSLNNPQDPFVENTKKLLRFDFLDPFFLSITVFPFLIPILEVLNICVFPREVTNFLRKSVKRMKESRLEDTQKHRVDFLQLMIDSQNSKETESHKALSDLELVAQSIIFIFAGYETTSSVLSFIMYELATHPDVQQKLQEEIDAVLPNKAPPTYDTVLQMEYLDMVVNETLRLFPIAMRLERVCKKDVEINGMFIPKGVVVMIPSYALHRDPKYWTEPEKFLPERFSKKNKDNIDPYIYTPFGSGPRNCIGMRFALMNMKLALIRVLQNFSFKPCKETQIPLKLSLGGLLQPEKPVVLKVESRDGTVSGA

Chain of Cytochrome P450 2C19 (P33261 whole entry): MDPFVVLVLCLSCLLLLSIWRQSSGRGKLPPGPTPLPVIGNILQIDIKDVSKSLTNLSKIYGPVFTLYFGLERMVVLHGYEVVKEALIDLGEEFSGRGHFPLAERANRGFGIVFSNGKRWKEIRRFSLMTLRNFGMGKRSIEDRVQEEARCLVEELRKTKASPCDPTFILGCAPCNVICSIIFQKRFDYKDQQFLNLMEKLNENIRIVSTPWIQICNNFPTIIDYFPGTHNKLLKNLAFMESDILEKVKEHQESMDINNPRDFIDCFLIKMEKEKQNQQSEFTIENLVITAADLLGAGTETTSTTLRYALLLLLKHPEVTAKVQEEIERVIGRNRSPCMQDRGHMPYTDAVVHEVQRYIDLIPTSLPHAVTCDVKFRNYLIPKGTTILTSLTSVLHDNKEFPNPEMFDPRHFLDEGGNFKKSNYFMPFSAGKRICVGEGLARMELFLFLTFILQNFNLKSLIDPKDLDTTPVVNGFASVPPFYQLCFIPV

c1ccc(C2CCC(N3CCC(N4CCCCC4)CC3)CC2)cc1 (stereo not given)
AC50 (Cytochrome P450 2C19; read-out: AC50): 31.6 µM (inconclusive)

COc1ccc(Nc2oc(COc3ccccc3F)nc2C#N)cc1
EC50 (Protein RecA): 2.44 µM (active) | AC50 [1]: 19.9 µM (active)

O=C(O)CC/C(=C\c1cc2c(cc1Br)OCO2)c1nc2ccccc2s1
EC50 (Streptokinase A): 56 µM (active) | EC50 (Streptococcus): > 150 µM (not active) | EC50 [2]: 5.71 µM (active)

Cc1ccccc1N1CCN(S(=O)(=O)c2nnc(NC(=O)c3ccco3)s2)CC1
EC50 (Streptokinase A): 5.16 µM (active) | EC50 (Streptococcus): 41.7 µM (active) | EC50 [2]: 11 µM (active)

CC(C)C[C@@H](C(=O)NC1CCN(Cc2ccccc2)CC1)N1C(=O)N2CCc3c([nH]c4ccccc34)[C@@]2(C)C1=O
EC50 [3]: 5.05 µM (active) | EC50 [4]: 6.88 µM (active)

COc1cccc(C(Nc2ccccn2)c2c(NC(=O)c3ccco3)sc(C)c2C)c1 (stereo not given)
EC50 [3]: > 60 µM (not active) | EC50 [4]: 2.53 µM (active)

Cc1cccc(CSC2=NCCN2S(=O)(=O)c2ccc(F)cc2)c1
EC50 (Streptokinase A): 23.2 µM (active) | EC50 (Streptococcus): > 150 µM (not active) | EC50 [2]: 41.8 µM (active)

CCOc1ccc(CCNC(=O)C(CC)n2nc(C)n3c(cc4sccc43)c2=O)cc1OCC (stereo not given)
EC50 [3]: > 60 µM (not active) | EC50 [4]: 1.31 µM (active)

CC(C)(C)c1cc(C(=O)CCN2CCOCC2)cc(C(C)(C)C)c1O
EC50 (Protein RecA): 16.8 µM (active) | AC50 [1]: 129 µM (active)

COc1ccc(COC(=O)N/N=C2/C[C@@H](O)[C@@H](O)[C@@H]3[C@@H]4C(=O)N([C@@H](C)c5ccccc5)C(=O)[C@H]4CC[C@@H]23)cc1
AC50 (Cytochrome P450 3A4): 3.98 µM (inconclusive)

Cn1c(=O)c2nc(CCCCc3nc4c(=O)n(C)c(=S)n(C)c4[nH]3)[nH]c2n(C)c1=S
AC50 (Cytochrome P450 2C19): inconclusive

CN(CCOc1ccccc1)CC(=O)Nc1ccc(S(=O)(=O)N2CCCC2)cc1
EC50 [3]: > 60 µM (not active) | EC50 [4]: 0.695 µM (active)

CCOc1ccc2oc(C(=O)NC3CCN(Cc4ccccc4)CC3)c(C)c2c1
EC50 [3]: > 60 µM (not active) | EC50 [4]: 2 µM (active)

Cc1ccc(S(=O)(=O)NCc2cccc([N+](=O)[O-])c2)cc1
AC50 (Cytochrome P450 2C19; read-out: AC50): 2.51 µM (inconclusive)

CC(NCc1ccncc1)C12CC3CC(CC(C3)C1)C2 (stereo not given)
EC50 [3]: > 60 µM (not active) | EC50 [4]: > 60 µM (not active)

Cc1c(C(=O)NN)nn(-c2ccc(Cl)cc2)c(=O)c1C#N
EC50 (Protein RecA): 8.06 µM (active) | AC50 [1]: 79.8 µM (active)

C#C[C@]1(O)CC[C@@H]2[C@H]3CCc4cc(OC)ccc4[C@@H]3CC[C@@]21C
AC50 (Cytochrome P450 2C19; read-out: AC50): 1.26 µM (inconclusive)

CC[C@H]1C2=C3C(CC[C@H]4C(OCc5ccc(F)cc5C(F)(F)F)OC[C@](C)([C@@H]34)N(C(=O)OC(C)(C)C)C2)C2COC(=O)OCC21 (stereo not given in full)
AC50 (Cytochrome P450 2C19; read-out: AC50): 39.8 µM (inconclusive)

OC(CN1CCN(Cc2ccccc2)CC1)c1ccc(Br)cc1 (stereo not given)
EC50 [3]: 10 µM (active) | EC50 [4]: 0.324 µM (active)

Cc1ccc(C(=O)Nc2nc(-c3ccccc3)c(-c3ccccc3)o2)cc1
EC50 [3]: > 60 µM (not active) | EC50 (Streptococcus): 2.36 µM (active) | EC50 [4]: 2.48 µM (active) | EC50 [2]: 1.27 µM (active)

Cc1c(C(=O)N2CCN(S(=O)(=O)c3ccc(F)cc3)CC2)oc2ccccc12
EC50 [3]: > 60 µM (not active) | EC50 [4]: 0.447 µM (active)

COC(=O)NCC(c1cccnc1)N1CCN(c2ccccc2OC)CC1 (stereo not given)
AC50 (Cytochrome P450 2C19; read-out: AC50): 11.2 µM (inconclusive)

CC(C)C(NC(=O)C(c1ccccc1)c1ccccc1)c1nc2ccccc2[nH]1 (stereo not given)
EC50 (Streptokinase A): > 150 µM (not active) | EC50 (Streptococcus): 16 µM (active) | EC50 [2]: 1.87 µM (active)

Cc1ccc(NC(=O)NCCCc2ccccc2)cc1
AC50 (Cytochrome P450 3A4): 7.94 µM (inconclusive)

COc1ccc(C(=O)NNC(=S)NC(=O)c2ccco2)cc1
EC50 (Streptokinase A): > 150 µM (not active) | EC50 (Streptococcus): 12 µM (active) | EC50 [2]: 2.98 µM (active)

CCCCN(CCCC)c1cc(C)nc(-c2ccccc2O)n1
EC50 (Streptokinase A): 5.4 µM (active) | EC50 (Streptococcus): > 150 µM (not active) | EC50 [2]: 19.7 µM (active)

CCCC[C@@H]1C[C@H]1C(NC(=O)c1cccs1)c1ccc(C(F)(F)F)cc1 (stereo not given in full)
AC50 (Cytochrome P450 2C19): inconclusive

COc1cc(C(c2c(C)n[nH]c2O)c2c(C)n[nH]c2O)ccc1OC(C)C
EC50 (Protein RecA): 0.223 µM (active) | AC50 [1]: 0.318 µM (active)

Cc1cc(Cl)c(OCCOCCN2CCCC(C)C2)c(Br)c1 (stereo not given)
EC50 [3]: > 60 µM (not active) | EC50 [4]: 0.393 µM (active)

COc1ccc(N2C(=O)C(Cl)=C(N3CCN(Cc4ccccc4)CC3)C2=O)cc1
EC50 (Protein RecA): 1.67 µM (active) | AC50 [1]: 8.12 µM (active)

COCC(=O)N1CCC[C@@]2(CCN(Cc3nccs3)C2)C1
AC50 (Cytochrome P450 3A4): 20 µM (inconclusive)

O=c1oc(-c2ccccc2Cl)nc2ccsc12
EC50 (Protein RecA): 23.3 µM (active) | AC50 [1]: 14 µM (active)

CN(C)CCCOc1ccc(Cl)cc1Br
EC50 [3]: > 60 µM (not active) | EC50 [4]: 0.535 µM (active)

O=C(COc1ccccc1)Nc1nnc(-c2ccccc2Cl)o1
EC50 (Streptokinase A): > 150 µM (not active) | EC50 (Streptococcus): > 150 µM (not active) | EC50 [2]: > 150 µM (not active)

COc1ccccc1N=C(S)N(Cc1ccc(C)cc1)Cc1ccccn1
EC50 [3]: > 60 µM (not active) | EC50 [4]: 1.55 µM (active)

CN(C)CCCNC(=O)c1cc2c3ccccc3n(C)c2s1
EC50 [3]: > 60 µM (not active) | EC50 [4]: 0.136 µM (active)

COC(=O)N1CCC2(CCN(C(=O)Nc3cccc(F)c3)CC2)CC1
AC50 (Cytochrome P450 2C19; read-out: AC50): 5.01 µM (inconclusive)

Cc1n[nH]c(O)c1C(c1ccc(Br)cc1)c1c(C)n[nH]c1O
EC50 (Protein RecA): 0.338 µM (active) | AC50 [1]: 0.588 µM (active)

Cc1cc(C)n2nc(SCC(=O)N/N=C/c3ccccc3F)nc2n1
AC50 (Cytochrome P450 2C19; read-out: AC50): 20 µM (inconclusive)

C/C(CC(=O)Nc1ccc(F)cc1)=N\NC(=O)COc1ccccc1
EC50 (Protein RecA): 3.72 µM (active) | AC50 [1]: 10.3 µM (active)

COc1cc(/C=N/NC(=O)c2cccs2)ccc1OCc1ccccc1
AC50 (Cytochrome P450 3A4): 15.8 µM (inconclusive)

CC1(C)S[C@@H]2[C@H](NC(=O)C(NC(=O)N3CCNC3=O)c3ccccc3)C(=O)N2[C@H]1C(=O)O (stereo not given in full)
EC50 (Streptococcus): < 0.06 µM (active) | EC50 [2]: < 0.06 µM (active)
